System: RPtag (large)
Assay: Association/dissociation kinetics of RPtag (small) peptides with RPtag (large) by fluorescence anisotropy
Format: binding, Thermoanaerobacter tengcongensis
Conditions: for koff: LS dissociation, unlabeled competitor peptide; for kon (M^−1 min^−1 ) (×10^7): S*-LS transition, calculated from measured koff and Kd
Experimental: Panel a depicts representative association rate kinetics traces varying native RPtag small. Rhodamine labeled RPtag small at the indicated concentration was incubated with unlabeled RPtag large and the association measured by fluorescence anisotropy. L-S complex concentration was calculated by the equation (r−rmin)/(rmax−rmin)*[S] where r is the measured anisotropy, rmin is the anisotropy in the absence of any RPtag large, rmax is the anisotropy measured in the presence of at saturating RPtag large, and [S] is the total concentration of RPtag small used in the experiment. […] Dashed cyan lines are simulations of the mechanism shown in f using the rate constants detailed herein. The concentrations in the simulations were multiplied by a correction factor of 0.925, which is well within the 90% purity specification of the purchased peptide.
LS complex was performed by incubating 1000 nM RPtag large with the indicated concentrations of rhodamine labeled RPtag small. At the start of the experiment, 0.1 mM unlabeled native RPtag small was added and fluorescence anisotropy monitored. Data processing was done as in panel a, except the red fits were to the single exponential decay equation y=y0+A*exp(−b*t). As expected, the initial dissociation rates were linear with respect to the LS complex.
Fitting to a line yields a rate constant (koff)=0.0091 min^−1 (FIG. 9 panel e). In good agreement, when the kinetics are fit with a first order rate law, a rate constant of 0.012±0.002 min^−1 (n=15) was observed. […] Panel e is a graph of the initial rates of the traces represented in d. Slope of the fit line is 0.0091 min^−1. Data are mean±SE (n=3).
The library of mutant RPtag(small) peptides, described above, was next analyzed to measure off rates (koff). The on rate was also calculated from measured koff and Kd (S*-LS transition), except instead of using unlabeled native peptide as the competitor, we used unlabeled Nd2,P5A,E18A (the tightest binding RPtag(small) peptide identified). […] However, there were notable exceptions. […] This indicates, without wishing to be limited, that P5 may constrain the structure of the peptide. The increased flexibility imparted to the peptide by the P5A mutation may decrease the energy barrier required for binding/unbinding.

RPtag (large), sequence (as listed by the source): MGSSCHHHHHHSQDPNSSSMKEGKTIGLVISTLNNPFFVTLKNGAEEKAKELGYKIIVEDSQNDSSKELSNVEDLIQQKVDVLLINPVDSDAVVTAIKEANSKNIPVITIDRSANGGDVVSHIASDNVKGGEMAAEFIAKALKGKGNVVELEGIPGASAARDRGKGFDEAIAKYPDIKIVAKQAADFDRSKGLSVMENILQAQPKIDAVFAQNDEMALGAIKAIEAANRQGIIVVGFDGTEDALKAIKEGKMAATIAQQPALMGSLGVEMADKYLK

For KIANFIPAELKLITKA [Nd2, Cd3, p5a, e18a], the “koff” value was 0.003 ± 0.00017 s⁻¹ and the “kon (M^−1 min^−1 ) (×10^7)” value was 33 ± 2 ×10^7 M^−1 min^−1.

In the case of AELKLITKENVQ [Nd9], the “koff” value was 0.00667 ± 0.00067 s⁻¹ and the “kon (M^−1 min^−1 ) (×10^7)” value was 8.2 ± 0.9 ×10^7 M^−1 min^−1.

KIPNFIPAELKLITKENVQ [Nd2] was tested, and the “koff” value was 5.83e-05 ± 1.3e-05 s⁻¹ and the “kon (M^−1 min^−1 ) (×10^7)” value was 5.3 ± 1.3 ×10^7 M^−1 min^−1.

With “KIPNFIPAELKLITKANAA [Nd2, e18a, v20a, q21a]” the “koff” value was 0.000383 ± 1.7e-05 s⁻¹ and the “kon (M^−1 min^−1 ) (×10^7)” value was 3.6 ± 0.3 ×10^7 M^−1 min^−1.

With KIANFIPAELKLITK [Nd2, Cd4, p5a] the “koff” value was 0.003 ± 0.00017 s⁻¹ and the “kon (M^−1 min^−1 ) (×10^7)” value was 22 ± 1 ×10^7 M^−1 min^−1.

In the case of GEKAPNFIPAELKLITKENVQ [i4a], the “koff” value was 0.0001 ± 3.3e-06 s⁻¹.

With GEKIPNFIPAELKLITK [Cd4] the “koff” value was 0.00367 ± 0.00033 s⁻¹ and the “kon (M^−1 min^−1 ) (×10^7)” value was 22 ± 2 ×10^7 M^−1 min^−1.

In the case of LITKENVQ [Nd13], the “koff” value was greater than 0.033 s⁻¹.

GEKIPNFIPAELKLI [Cd6] was tested, and the “koff” value was greater than 0.033 s⁻¹.

In the case of KIPNFIPAELKLITKANVQ [Nd2, e18a], the “koff” value was 0.000138 ± 1.67e-05 s⁻¹ and the “kon (M^−1 min^−1 ) (×10^7)” value was 6.5 ± 0.7 ×10^7 M^−1 min^−1.

With “RIANFIPAELKLITKANVQ [Nd2, k3r, p5a, e18a]” the “koff” value was 0.000217 ± 1.7e-05 s⁻¹ and the “kon (M^−1 min^−1 ) (×10^7)” value was 3.4 ± 0.1 ×10^7 M^−1 min^−1.

With GEAIPNFIPAELKLITKENVQ [k3a] the “koff” value was 8.83e-05 ± 1.2e-05 s⁻¹ and the “kon (M^−1 min^−1 ) (×10^7)” value was 1.1 ± 0.1 ×10^7 M^−1 min^−1.

With IPAELKLITKENVQ [Nd7] the “koff” value was 0.0007 ± 0.000167 s⁻¹ and the “kon (M^−1 min^−1 ) (×10^7)” value was 1.8 ± 0.4 ×10^7 M^−1 min^−1.

With GEKIPNFIPAELKAITKENVQ [l14a] the “koff” value was greater than 0.033 s⁻¹.

For PAELKLITKE [Nd8, Cd3], the “koff” value was greater than 0.033 s⁻¹.

GEKIPNFIPAELKLITKE [Cd3] was tested, and the “koff” value was 0.002 ± 0.00033 s⁻¹.

With KIANFIPAELKLITKE [Nd2, Cd3, p5a] the “kon (M^−1 min^−1 ) (×10^7)” value was 26 ± 1 ×10^7 M^−1 min^−1.

GEKIPNFIPAELKLATKENVQ [i15a] was tested, and the “koff” value was 0.0183 ± 0.005 s⁻¹ and the “kon (M^−1 min^−1 ) (×10^7)” value was 25 ± 6 ×10^7 M^−1 min^−1.

GEKIPNFIPAELKLIT [Cd5] was tested, and the “koff” value was 0.0065 ± 0.00383 s⁻¹ and the “kon (M^−1 min^−1 ) (×10^7)” value was 11 ± 7 ×10^7 M^−1 min^−1.

With GEKIPNFIPAELKLITKEN [Cd2] the “kon (M^−1 min^−1 ) (×10^7)” value was 9.8 ± 0.3 ×10^7 M^−1 min^−1.

KLITKENVQ [Nd12] was tested, and the “koff” value was greater than 0.033 s⁻¹.

For ELKLITKE [Nd10, Cd3], the “koff” value was greater than 0.033 s⁻¹.

With “KIANFIPAELKLITKANAA [Nd2, p5a, e18a, v20a, q21a]” the “koff” value was 0.000217 ± 1.7e-05 s⁻¹ and the “kon (M^−1 min^−1 ) (×10^7)” value was 20 ± 1 ×10^7 M^−1 min^−1.

GEKIPNFAPAELKLITKENVQ [i8a] was tested, and the “koff” value was 0.0015 ± 0.00015 s⁻¹ and the “kon (M^−1 min^−1 ) (×10^7)” value was 8.6 ± 0.9 ×10^7 M^−1 min^−1.

In the case of FIPAELKLITKE [Nd6, Cd3], the “koff” value was greater than 0.033 s⁻¹.

ELKLITKENVQ [Nd10] was tested, and the “koff” value was 0.00417 ± 0.00067 s⁻¹ and the “kon (M^−1 min^−1 ) (×10^7)” value was 4.3 ± 0.7 ×10^7 M^−1 min^−1.

For KIPNFIPAELKLITKA [Nd2, Cd3, e18a], the “koff” value was 0.000883 ± 3.3e-05 s⁻¹ and the “kon (M^−1 min^−1 ) (×10^7)” value was 40 ± 2 ×10^7 M^−1 min^−1.

For PNFIPAELKLITKENVQ [Nd4], the “koff” value was 0.000467 ± 1.7e-05 s⁻¹ and the “kon (M^−1 min^−1 ) (×10^7)” value was 9.4 ± 0.4 ×10^7 M^−1 min^−1.

With LKLITKENVQ [Nd11] the “koff” value was 0.02 ± 0.01 s⁻¹ and the “kon (M^−1 min^−1 ) (×10^7)” value was 7.1 ± 3.8 ×10^7 M^−1 min^−1.

In the case of GEKIPNFIPAALKLITKENVQ [e11a], the “koff” value was 0.000112 ± 8.3e-06 s⁻¹ and the “kon (M^−1 min^−1 ) (×10^7)” value was 0.46 ± 0.06 ×10^7 M^−1 min^−1.

With GEKIPAFIPAELKLITKENVQ [n6a] the “koff” value was 2.5e-05 ± 5e-06 s⁻¹ and the “kon (M^−1 min^−1 ) (×10^7)” value was 0.45 ± 0.09 ×10^7 M^−1 min^−1.

In the case of ELKLITKA [Nd10, Cd3, e18a], the “koff” value was greater than 0.033 s⁻¹.

In the case of PAELKLITKENVQ [Nd8], the “koff” value was 0.000917 ± 3.3e-05 s⁻¹ and the “kon (M^−1 min^−1 ) (×10^7)” value was 9.3 ± 0.3 ×10^7 M^−1 min^−1.

With GEKIPNFIPAELKLIAKENVQ [t16a] the “koff” value was 0.00148 ± 5e-05 s⁻¹ and the “kon (M^−1 min^−1 ) (×10^7)” value was 7.5 ± 0.3 ×10^7 M^−1 min^−1.

With GEKIPNFIPAELKL [Cd7] the “koff” value was greater than 0.033 s⁻¹.

NFIPAELKLITKENVQ [Nd5] was tested, and the “koff” value was 0.000933 ± 1.7e-05 s⁻¹ and the “kon (M^−1 min^−1 ) (×10^7)” value was 9.6 ± 0.1 ×10^7 M^−1 min^−1.

Reference: patent US11414454B2, “Compositions, methods, and systems for affinity-based protein identification and purification” (Auctus Biologies, Inc., priority 2017, dated 2022)
